One assay deals with X-box-binding protein 1 (Homo sapiens, UniProt P17861). In kind it is functional, Cricetulus griseus.
For assay [1], the system named is Streptococcus sp. 'group A'. In words: Streptococcus pyogenes SK(-)GAS viability under kanamycin – luminescence, BacTiterGlo, confirmation, counter-screen for streptokinase expression inhibitor project, dose response (AID 1900). The class given is functional, organism-based.
In the next assay the target is T1, Streptokinase A (Streptococcus pyogenes serotype M1, UniProt P10520).
T1 sequence (P10520 whole entry): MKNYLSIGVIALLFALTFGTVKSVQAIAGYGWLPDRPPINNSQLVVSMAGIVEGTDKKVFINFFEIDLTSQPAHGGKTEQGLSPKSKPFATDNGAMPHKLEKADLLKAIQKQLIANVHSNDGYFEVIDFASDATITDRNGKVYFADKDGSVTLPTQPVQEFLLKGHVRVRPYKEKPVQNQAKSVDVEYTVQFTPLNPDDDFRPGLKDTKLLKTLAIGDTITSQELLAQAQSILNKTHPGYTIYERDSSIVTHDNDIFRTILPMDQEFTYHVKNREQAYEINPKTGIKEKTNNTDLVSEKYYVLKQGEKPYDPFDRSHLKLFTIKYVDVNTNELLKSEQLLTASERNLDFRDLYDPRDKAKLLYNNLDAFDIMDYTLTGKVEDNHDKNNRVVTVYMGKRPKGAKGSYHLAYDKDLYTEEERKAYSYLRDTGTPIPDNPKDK
In words: viability-normalized secreted streptokinase activity reduction – plasminogen activation absorbance, OD405, dose response (AID 1914).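 Note: secreted streptokinase activity via plasminogen activation per viability signal from cell pellet.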 The class given is functional, Streptococcus pyogenes M1 GAS.

Another assay has as its system Streptococcus. In words: GAS UMAA2166 growth inhibition – luminescence, BacTiterGlo, counter-screen for streptokinase expression inhibitor project, dose response (AID 1915).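 Note: potency for reduction of bacterial viability or growth.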 In kind it is functional, organism-based. On the technique in general: Counterscreens check selectivity or assay interference.
For another assay, the target named is Nonstructural protein 1 (Influenza A virus, UniProt Q194T2). In kind it is functional, Influenza A virus (A/California/07/2009(H1N1)).
A short description of assay [2]: viability loss in HeLa cells – cytotoxicity control for MgcRacGAP inhibitor project, dose response (AID 624300). The class given is functional.
The nature of assay [3]: Cytotoxicity screening for potential Inhibitors of Bacterial Capsule Biogenesis. [Related pubchem assays (depositor defined):AID488970]. The class given is functional.
Assay [4] has as its target T2, Rac GTPase-activating protein 1 (Homo sapiens, UniProt Q9H0H5).
T2 sequence (Q9H0H5 whole entry): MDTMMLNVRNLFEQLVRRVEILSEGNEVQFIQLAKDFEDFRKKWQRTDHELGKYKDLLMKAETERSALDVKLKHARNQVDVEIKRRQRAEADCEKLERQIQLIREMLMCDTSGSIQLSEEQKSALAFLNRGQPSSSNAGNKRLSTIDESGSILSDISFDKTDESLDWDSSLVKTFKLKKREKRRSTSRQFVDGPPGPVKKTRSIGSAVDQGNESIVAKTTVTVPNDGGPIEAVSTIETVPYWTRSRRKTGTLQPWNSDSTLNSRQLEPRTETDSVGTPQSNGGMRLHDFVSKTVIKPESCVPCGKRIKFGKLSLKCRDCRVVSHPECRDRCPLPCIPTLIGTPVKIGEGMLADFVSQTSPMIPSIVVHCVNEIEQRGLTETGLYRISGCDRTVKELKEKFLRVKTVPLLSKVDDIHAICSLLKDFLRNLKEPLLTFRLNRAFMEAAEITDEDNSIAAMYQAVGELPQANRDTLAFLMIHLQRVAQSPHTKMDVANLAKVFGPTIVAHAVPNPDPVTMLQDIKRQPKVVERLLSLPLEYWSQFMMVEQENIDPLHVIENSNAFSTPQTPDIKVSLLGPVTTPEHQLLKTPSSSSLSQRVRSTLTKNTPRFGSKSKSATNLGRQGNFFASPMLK
In words: blockers of MgcRacGAP-driven Rac1 GTP hydrolysis – biochemical, ADP Hunter fluorescence, primary and confirmatory, confirmation (AID 624330). The class given is functional.

A short description of assay [5]: HGIII-sPLA2 enzyme inhibition potency – biochemical, QFRET, IC50, dose response (AID 743457).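 Note: green fluorescence rise as the enzyme cleaves BODIPY PC-A2 in liposomes.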
The target in assay [6] is T3, DNA repair protein RAD52 homolog (Homo sapiens, UniProt P43351).
T3 sequence (P43351 whole entry): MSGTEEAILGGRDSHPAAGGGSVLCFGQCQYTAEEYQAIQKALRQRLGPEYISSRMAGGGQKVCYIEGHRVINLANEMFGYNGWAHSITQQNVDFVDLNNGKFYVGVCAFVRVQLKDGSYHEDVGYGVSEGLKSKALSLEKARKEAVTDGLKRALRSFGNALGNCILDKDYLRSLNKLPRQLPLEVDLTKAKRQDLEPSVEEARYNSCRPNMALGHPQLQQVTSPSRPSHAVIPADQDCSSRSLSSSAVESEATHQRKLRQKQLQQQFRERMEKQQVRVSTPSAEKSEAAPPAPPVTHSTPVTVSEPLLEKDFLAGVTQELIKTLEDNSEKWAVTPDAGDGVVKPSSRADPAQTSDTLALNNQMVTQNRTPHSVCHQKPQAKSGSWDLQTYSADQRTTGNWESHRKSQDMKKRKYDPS
The class given is functional, biochemical.

Assay [7] concerns the target T4, Histone-lysine N-methyltransferase NSD2 (Homo sapiens, UniProt O96028).
T4 sequence (O96028 whole entry): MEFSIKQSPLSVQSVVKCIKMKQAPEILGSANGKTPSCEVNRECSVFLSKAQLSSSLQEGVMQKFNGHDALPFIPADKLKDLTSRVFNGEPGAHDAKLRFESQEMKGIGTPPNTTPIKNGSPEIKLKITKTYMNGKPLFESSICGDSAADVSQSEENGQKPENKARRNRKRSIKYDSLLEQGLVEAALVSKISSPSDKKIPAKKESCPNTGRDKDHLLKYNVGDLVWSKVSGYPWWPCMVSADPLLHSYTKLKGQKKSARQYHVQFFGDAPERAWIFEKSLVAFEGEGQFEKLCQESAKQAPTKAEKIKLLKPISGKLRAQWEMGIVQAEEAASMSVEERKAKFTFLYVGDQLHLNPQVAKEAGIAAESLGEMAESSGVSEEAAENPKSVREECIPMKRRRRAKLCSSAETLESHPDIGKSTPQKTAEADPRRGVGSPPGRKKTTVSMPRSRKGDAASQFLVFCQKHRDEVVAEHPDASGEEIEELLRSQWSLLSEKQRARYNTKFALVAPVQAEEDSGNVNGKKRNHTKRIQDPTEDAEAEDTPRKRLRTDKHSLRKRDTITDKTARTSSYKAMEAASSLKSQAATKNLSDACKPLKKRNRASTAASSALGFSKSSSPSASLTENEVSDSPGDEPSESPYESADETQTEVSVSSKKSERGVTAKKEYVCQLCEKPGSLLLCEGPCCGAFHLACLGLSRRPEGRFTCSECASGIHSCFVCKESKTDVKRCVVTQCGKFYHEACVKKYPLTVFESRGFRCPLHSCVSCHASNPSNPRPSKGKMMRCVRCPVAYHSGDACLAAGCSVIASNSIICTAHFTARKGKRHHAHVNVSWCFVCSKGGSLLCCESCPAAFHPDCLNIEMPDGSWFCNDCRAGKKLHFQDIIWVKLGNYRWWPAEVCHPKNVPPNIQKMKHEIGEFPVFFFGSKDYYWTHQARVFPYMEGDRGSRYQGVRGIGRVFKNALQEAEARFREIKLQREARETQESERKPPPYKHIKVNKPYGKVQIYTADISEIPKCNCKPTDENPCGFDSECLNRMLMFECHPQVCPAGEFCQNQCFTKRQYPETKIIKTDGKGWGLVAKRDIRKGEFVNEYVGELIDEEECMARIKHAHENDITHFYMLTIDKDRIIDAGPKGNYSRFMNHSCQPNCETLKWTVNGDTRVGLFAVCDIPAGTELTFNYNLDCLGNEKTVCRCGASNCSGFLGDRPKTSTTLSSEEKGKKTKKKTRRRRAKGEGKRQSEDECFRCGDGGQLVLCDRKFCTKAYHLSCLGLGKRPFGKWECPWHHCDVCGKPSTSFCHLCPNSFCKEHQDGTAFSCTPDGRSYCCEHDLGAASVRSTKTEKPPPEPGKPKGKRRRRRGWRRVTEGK
In kind it is biochemical.

The target in assay [8] is Dual specificity tyrosine-phosphorylation-regulated kinase 1A (Rattus norvegicus, UniProt Q63470). The class given is biochemical, Homo sapiens.
Assay [9] deals with T5, Tyrosine-protein phosphatase non-receptor type 7 (Homo sapiens, UniProt P35236).
T5 sequence (P35236 whole entry): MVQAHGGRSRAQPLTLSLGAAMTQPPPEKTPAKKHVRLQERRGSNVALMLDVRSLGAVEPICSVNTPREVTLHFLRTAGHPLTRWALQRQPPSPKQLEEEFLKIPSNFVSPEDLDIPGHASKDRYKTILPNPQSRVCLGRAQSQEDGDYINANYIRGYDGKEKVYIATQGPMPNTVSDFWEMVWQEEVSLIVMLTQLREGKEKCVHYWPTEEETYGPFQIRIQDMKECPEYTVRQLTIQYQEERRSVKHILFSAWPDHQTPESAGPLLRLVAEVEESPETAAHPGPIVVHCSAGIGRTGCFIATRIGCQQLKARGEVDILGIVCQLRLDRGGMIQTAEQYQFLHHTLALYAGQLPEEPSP
In words: redox-active compounds inhibiting HePTP phosphatase – biochemical, fluorescence, mechanism study (AID 2068). The class given is functional.

For another assay, the target named is Bcl-2-like protein 10 (Homo sapiens, UniProt Q9HD36). Put plainly: Bcl-B/TR3 peptide binding disruption – biochemical, fluorescence polarization, FITC-TR3 peptide, selectivity assay for Bfl-1 inhibitor project, primary screen (AID 748). For orientation: Fluorescence polarisation rises when a labelled molecule tumbles more slowly, as on binding a larger partner.

Assay [10] is described as follows: DNA intercalator displacement (FID) – biochemical, fluorescence, counter-screen for HCV NS3 helicase inhibitor project, dose response (AID 2172).
The target of assay [11] is Protein-tyrosine kinase 2-beta (Homo sapiens, UniProt Q14289).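 Note: potency of inhibitors of PYK2 kinase phosphorylation of poly-GT substrate.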
The next assay deals with NS3 (Hepatitis C virus, UniProt A3EZJ3). Put plainly: PubChem AID 2173. The arrangement: species or system Hepacivirus hominis.
Assay [12] has as its target Eukaryotic translation initiation factor 4E (Mus musculus, UniProt P63073). Put plainly: blockers of eIF4G binding by eIF4E – biochemical, TR-FRET, dose response (AID 855).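 Note: potency for disrupting eIF4E binding to eIF4GI seen as loss of FRET.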 In kind it is functional. (In TR-FRET formats the signal depends on donor and acceptor labels being close together.)
The next assay concerns the target Genome polyprotein (Hepatitis C virus, UniProt Q2Q167). In words: disruption of hepatitis C core self-association – biochemical, TR-FRET, dose response (AID 2159).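 Note: blocks dimerization of HCV core protein measured by TR-FRET between tagged core106 pairs.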 Set-up: species or system Hepacivirus hominis.

Several values for one entry are separate records, joined by “and”; a condition that tells them apart may be missing. Equal values may be shown once. Activity calls are given as the source filed them.

The values that follow come from ChEMBL document CHEMBL1201862, “PubChem BioAssay data set” (2004).
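Throughout, for Absolute IC50 (XBP1): confirmatory dose-response counter-screen serving a CHOP assay.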

Chain of Genome polyprotein (Q2Q167 whole entry): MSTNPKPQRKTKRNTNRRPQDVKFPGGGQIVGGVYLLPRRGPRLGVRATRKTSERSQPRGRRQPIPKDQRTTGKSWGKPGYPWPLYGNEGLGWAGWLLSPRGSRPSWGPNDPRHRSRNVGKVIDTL
Chain of Protein-tyrosine kinase 2-beta (Q14289 whole entry): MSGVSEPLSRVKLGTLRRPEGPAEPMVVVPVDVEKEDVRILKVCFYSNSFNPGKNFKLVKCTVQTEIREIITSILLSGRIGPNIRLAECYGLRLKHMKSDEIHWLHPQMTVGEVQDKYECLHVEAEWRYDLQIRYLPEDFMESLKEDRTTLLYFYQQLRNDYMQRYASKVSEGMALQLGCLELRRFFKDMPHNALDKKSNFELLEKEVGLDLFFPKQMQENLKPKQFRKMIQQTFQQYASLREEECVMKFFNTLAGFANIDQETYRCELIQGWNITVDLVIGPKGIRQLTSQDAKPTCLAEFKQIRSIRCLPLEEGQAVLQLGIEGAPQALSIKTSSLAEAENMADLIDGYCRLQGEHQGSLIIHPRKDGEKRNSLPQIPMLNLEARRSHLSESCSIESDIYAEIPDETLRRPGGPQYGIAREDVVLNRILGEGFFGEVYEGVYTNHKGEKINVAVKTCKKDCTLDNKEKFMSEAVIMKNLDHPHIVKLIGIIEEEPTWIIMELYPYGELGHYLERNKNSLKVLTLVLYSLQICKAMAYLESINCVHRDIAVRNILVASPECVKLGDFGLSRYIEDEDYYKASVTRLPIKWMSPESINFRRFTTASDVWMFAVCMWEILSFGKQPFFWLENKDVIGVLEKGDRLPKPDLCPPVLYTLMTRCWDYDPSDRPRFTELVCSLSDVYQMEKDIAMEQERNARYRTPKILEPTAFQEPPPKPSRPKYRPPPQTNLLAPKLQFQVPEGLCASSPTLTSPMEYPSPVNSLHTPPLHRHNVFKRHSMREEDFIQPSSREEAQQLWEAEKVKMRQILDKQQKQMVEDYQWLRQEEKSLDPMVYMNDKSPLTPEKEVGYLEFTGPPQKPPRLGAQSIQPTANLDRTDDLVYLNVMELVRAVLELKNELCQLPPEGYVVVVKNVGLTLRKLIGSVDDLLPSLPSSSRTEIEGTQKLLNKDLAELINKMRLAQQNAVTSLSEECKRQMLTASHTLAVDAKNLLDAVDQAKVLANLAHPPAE
Chain of Bcl-2-like protein 10 (Q9HD36 whole entry): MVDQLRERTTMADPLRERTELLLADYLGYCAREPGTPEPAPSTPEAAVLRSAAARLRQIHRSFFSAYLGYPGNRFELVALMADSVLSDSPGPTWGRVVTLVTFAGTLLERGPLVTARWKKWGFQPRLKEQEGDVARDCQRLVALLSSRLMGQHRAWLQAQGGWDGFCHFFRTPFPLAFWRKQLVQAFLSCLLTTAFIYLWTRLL
Chain of Eukaryotic translation initiation factor 4E (P63073 whole entry): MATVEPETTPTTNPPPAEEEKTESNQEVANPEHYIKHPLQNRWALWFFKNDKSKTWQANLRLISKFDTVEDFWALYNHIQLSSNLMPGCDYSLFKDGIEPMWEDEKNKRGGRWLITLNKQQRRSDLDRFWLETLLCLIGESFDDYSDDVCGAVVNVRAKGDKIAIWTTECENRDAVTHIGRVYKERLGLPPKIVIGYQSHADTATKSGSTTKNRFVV
Chain of NS3 (A3EZJ3 whole entry): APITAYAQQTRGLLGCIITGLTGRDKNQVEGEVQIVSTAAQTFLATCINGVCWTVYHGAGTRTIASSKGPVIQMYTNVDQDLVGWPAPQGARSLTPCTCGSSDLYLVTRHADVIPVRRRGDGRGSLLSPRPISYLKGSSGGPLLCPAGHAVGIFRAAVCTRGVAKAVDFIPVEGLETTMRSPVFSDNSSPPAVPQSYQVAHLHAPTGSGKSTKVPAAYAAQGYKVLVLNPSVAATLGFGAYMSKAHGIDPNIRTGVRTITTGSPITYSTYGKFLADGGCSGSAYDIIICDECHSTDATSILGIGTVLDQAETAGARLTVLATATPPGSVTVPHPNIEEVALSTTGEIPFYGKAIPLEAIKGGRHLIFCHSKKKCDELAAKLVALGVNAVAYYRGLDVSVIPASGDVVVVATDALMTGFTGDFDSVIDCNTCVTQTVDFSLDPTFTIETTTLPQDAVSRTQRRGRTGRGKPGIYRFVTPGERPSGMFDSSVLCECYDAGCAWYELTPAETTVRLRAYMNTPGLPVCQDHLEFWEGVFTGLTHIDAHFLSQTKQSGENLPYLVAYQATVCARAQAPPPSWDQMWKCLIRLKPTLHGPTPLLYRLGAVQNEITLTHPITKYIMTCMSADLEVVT
Chain of Nonstructural protein 1 (Q194T2 whole entry): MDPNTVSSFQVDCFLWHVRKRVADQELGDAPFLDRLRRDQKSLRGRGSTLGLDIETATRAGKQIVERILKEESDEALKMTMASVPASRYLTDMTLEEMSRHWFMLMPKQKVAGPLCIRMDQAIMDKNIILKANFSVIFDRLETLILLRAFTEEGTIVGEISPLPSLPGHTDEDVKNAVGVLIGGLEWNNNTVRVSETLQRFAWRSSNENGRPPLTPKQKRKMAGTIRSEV
Chain of X-box-binding protein 1 (P17861 whole entry): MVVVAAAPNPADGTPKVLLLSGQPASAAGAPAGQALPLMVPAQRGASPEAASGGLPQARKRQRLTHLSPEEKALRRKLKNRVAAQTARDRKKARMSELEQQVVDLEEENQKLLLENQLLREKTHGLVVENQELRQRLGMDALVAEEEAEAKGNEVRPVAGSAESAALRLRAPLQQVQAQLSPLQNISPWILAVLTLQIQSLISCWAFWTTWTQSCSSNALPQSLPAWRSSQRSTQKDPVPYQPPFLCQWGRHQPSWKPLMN

The EC50 is the concentration at which the effect is half-maximal. For the molecule `Cc1cc(O)c(NC(=S)NC(=O)c2ccc(-c3ccc(Cl)cc3)o2)cc1C`, the “Absolute IC50 (XBP1)” value at X-box-binding protein 1 is 10 µM. The EC50 is 0.959 µM (active) in [1], > 150 µM (not active) on Streptokinase A and 12.2 µM (active) in the assay with Streptococcus.
Usually IC50 stands for the concentration needed to halve the response being measured. A word on the CC50: it is the concentration that lowers cell viability or growth by half. As a reminder, the AC50 is the concentration at which the activity in the assay is half-maximal. Consider `O=C1c2c(O)ccc(O)c2C(=O)c2c(NCCNCCO)ccc(NCCNCCO)c21` [MITOXANTRONE], for which the IC50 was 2.05 µM (active) on Nonstructural protein 1, 14.5 µM (active) in [4] and > 122 µM (inactive) in assay [5]. Besides, the CC50 was 6.34 µM (active) in [2] and < 0.38 µM (active) in assay [3]. Moreover, the results for the AC50 in assay [6], in [7] and in assay [8] were < 0.244 µM (active), 2.34 µM (active) and 1.25 µM (active), respectively.
On to `CC(=O)c1ccc(NC(=O)c2ccc3nc(-c4ccco4)c(-c4ccco4)nc3c2)cc1`, for which the IC50 in assay [9] is 998 nM (active) and 805 nM (active); at Bcl-2-like protein 10 it was 14.6 µM (active); in assay [10], 83.5 µM (not active); in assay [11], 1.24 µM (active); at NS3 it was 5.88 µM (active); in [12], > 64 µM (inactive). In addition, the IC50 at Genome polyprotein is given as > 49.8 µM (not active).
